Reference: EP2982368A1, “Small molecule compounds displacing focal adhesion core components” (Universität Konstanz, priority 2014, dated 2016)

Columns and labels:
FAK [1] = assay: Immunoblot of FAK and paxillin protein level and FAK Tyr397 phosphorylation; format: cell-based, mouse; settings: serum-starved GFP-FAK MEFs, increasing concentrations, 30 min
Description: Image J was used to automatically quantify FAK-containing focal adhesions due to local maxima of fluorescence intensity in the GFP-channel (5 to 70 pixel). The number of cells was automatically counted in the Hoechst channel. To test reproducibility of the system 40 control wells were quantified wherein four positions for each well were imaged. […] GFP-FAK mouse embryonic fibroblasts were seeded on fibronectin and incubated for 1 h with the indicated concentrations of the small compounds, respectively. […] GFP-FAK mouse embryonic fibroblasts were seeded on fibronectin and serum-starved overnight. The indicated concentrations of Mb31 were applied for 30 min. Cells were lysed and analyzed for paxillin and FAK protein level as well as FAK Tyr397 phosphorylation. […] The purified kinase domain of FAK was incubated with increasing amounts of Mb31 for 1 h at 30°C together with poly-Glu-Tyr as a FAK substrate. […] Cell viability was assessed by MTT assay. […] Migration was recorded from cells that were cultured without serum (A), with serum (B) or with serum in the presence of 3 µM Mb31 (C). […] Mouse embryonic fibroblasts (MEFs) were transfected with talin-mCherry and talin dynamics analyzed in focal adhesions using fluorescence recovery after photobleaching (FRAP). […] (C) Wound closure was microscopically analyzed and evaluated using ImageJ software. […]

[2] = target: T1, Kinase domain of human FAK (Homo sapiens, UniProt Q05397, P410G); assay: ELISA-based in vitro kinase assay; format: biochemical; settings: poly-Glu-Tyr substrate, 1 h at 30°C
T1 construct: Kinase domain of human FAK (aa 410-689, hFAK-KD) was expressed; 6xHis (N); made in house; host or cells: Sf9 insect cells (baculovirus, pVL1392)
T1 sequence (Q05397 410-689 P410G): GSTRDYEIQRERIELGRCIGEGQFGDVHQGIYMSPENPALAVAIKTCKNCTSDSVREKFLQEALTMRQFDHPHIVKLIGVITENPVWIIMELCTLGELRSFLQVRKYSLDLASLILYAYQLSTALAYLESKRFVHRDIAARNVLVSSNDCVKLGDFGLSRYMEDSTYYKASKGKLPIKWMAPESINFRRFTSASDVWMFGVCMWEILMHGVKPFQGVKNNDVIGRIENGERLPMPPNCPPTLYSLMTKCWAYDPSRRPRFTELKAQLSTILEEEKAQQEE
Description: Kinase domain of human FAK (aa 410-689, hFAK-KD) was expressed with an amino-terminal 6xHis-tag and a carboxy-terminal Nef epitope-tag. FAK residue 410 was changed from proline to glycine. Expression of the fusion protein was performed in Sf9 insect cells using the pVL1392 transfer vector and the BacuIoGold Transfection Kit (BD Biosciences, San Diego, USA). Cells were lysed in Sf9 lysis buffer (0.33% Tween20, 1 mM EDTA, 500 mM NaCl, 100 µM PMSF, 1 mM β-Mercaptoethanol in 25 mM TrisHCl, pH 7.5) for 20 min at 4°C. Subsequently, the lysate was cleared by centrifugation and hFAK-KD was purified from the soluble fraction under native conditions by FPLC using a HisTrapFFcrude 1 mL column (GE Healthcare, Munich, Germany)
A microtiter plate was coated with 2 µg/well of poly(Glu:Tyr) (4:1) copolymer (Sigma-Aldrich, Steinheim, Germany) as artificial FAK substrate and blocked with 2% BSA in PBS with 0.01% Tween20. Purified hFAK-KD together with 100 µM ATP were added in kinase buffer (125 mM NaCl, 48 mM MgCl2, 50 mM HEPES, pH 7.5) in presence of various concentrations of test compounds and incubated for 1 h at 30°C. The reaction was stopped by the addition of EDTA and wells were extensively washed with 0.05% Tween20 in PBS. Phosphorylated substrate was detected by monoclonal anti-phosphotyrosine antibody followed by peroxidasecoupled goat anti-mouse antibody. […] The absorbance was measured at 450 nm.

FAK [3] = target: T2, FAK (Mus musculus, UniProt P34152); assay: Reversibility of FAK displacement after compound washout; format: cell-based; settings: 4 µM for 1 h
T2 construct: expressed in transfected cells; host or cells: FAK-/- (p53-/-) mouse embryonic fibroblasts stably re-expressing GFP-FAK
T2 sequence (P34152 whole entry): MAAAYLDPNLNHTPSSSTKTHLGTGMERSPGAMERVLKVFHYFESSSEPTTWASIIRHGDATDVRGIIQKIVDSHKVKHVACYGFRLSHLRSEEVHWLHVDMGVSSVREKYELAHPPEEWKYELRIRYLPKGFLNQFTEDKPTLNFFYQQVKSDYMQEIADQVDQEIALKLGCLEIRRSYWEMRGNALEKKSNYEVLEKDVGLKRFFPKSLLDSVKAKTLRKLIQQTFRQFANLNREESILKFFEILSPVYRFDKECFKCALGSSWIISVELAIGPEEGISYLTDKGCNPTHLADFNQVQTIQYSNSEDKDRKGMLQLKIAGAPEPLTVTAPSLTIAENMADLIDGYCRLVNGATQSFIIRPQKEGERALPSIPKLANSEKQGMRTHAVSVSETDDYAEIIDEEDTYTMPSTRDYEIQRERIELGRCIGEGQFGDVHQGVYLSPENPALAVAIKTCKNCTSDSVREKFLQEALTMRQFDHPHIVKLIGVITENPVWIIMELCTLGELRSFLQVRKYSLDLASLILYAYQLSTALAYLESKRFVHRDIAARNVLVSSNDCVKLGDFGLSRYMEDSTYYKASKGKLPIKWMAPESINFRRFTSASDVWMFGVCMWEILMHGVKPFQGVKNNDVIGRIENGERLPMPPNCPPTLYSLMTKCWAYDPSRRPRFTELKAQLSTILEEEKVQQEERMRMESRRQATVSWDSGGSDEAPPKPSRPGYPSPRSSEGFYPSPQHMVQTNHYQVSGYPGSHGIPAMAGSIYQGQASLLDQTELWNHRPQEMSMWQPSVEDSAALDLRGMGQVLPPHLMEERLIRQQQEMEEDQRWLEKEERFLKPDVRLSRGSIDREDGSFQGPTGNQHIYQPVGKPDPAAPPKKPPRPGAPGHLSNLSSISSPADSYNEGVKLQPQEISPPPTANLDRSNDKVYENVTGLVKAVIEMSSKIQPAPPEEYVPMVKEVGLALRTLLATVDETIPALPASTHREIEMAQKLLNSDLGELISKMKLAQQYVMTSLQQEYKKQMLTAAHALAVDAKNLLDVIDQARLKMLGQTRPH
Description: In order to analyze whether FAK or its binding partner paxillin are degraded after displacement, serum-starved GFP-FAK MEFs were stimulated with normal growth medium in presence of increasing concentrations of Mb31. After 30 min cells were lysed and protein levels were determined by immunoblotting. […] In line with this, in vitro activity of purified FAK kinase domain was not altered in presence of Mb31 (Figure 8). […] Considering, that paxillin and FAK are not degraded in Mb31 treated GFP-FAK MEFs the inventors further investigated whether FAK displacement is reversible. GFP-FAK MEFs were seeded on fibronectin and treated with 4 µM Mb31 for 1 h. Following compound washout, cells were incubated for 1 h and fixed. […] To strengthen the hypothesis of FAK relocalization, in a second approach de novo protein synthesis was blocked with cycloheximide. Again, FAK containing focal adhesions could be clearly identified in the cell periphery.
MEFs were seeded on fibronectin fragment (4 µg/ml in PBS) in multi-well plates (Greiner Bio-One) and incubated for 4 h to allow spreading. Cells were fixed and permeabilized with MeOH at -20°C after pre-fixation with 4% paraformaldehyde. […] Cells were washed again with PBS to remove excess antibodies and were imaged using a Leica AF6000LX fluorescence microscope. […]

O=[N+]([O-])C=Cc1cc(Br)cs1 [FootLocker 1, 4-bromo-2-(2-nitrovinyl)thiophene]
Y397 phosphorylation of FAK (FAK [1]): not influenced
degradation of FAK and paxillin (protein levels) (FAK [1]): Neither for FAK nor for paxillin was any degradation observed
in vitro activity of purified FAK kinase domain (FAK substrate phosphorylation) [2]: not altered
FAK displacement in treated cells (FAK [3]; before washout): completely displaced
FAK localization after compound washout (FAK [3]; washout, 1 h incubation): FAK relocalized to focal adhesions
